Patent US20050075398A1, “Neuroprotectin D1 protects against cellular apoptosis, stroke damage, alzheimer's disease and retinal diseases” (priority 2003, published 2005)

Experiments:
COX-1 mRNA = COX-1 mRNA in human neural progenitor cells; type: cell-based
Method: (§1) Human neural (HN) progenitor cells in primary culture. HN cells were grown to ˜70% confluence (˜50,000 cells per 3.5-cm diameter well) in 6-well COSTAR plates at 37° C., 5% CO2/20% O2/75% N2 in humidified air at 1 atm (normoxic conditions) in NPMM medium (Clonetics CC-4241) supplemented with hFGF, NSF-1, hEGF, GA-1000, as described by the manufacturer (Clonetics, Walkersville, Md.). HN cells tested negative for HIV-1, hepatitis B and C, mycoplasma, bacteria, yeast, and fungi, and positive for the glial and neuronal markers GFAP, MAP2, and β-tubulin III (Clonetics). After two weeks of development, HN cells were exposed to human recombinant interleukin 1-beta (IL-1β) (10 ng/ml) for 3 h in the presence or absence of 0.03, 0.3, 3.0, 30, and 300 nM 10,17S-docosatriene (NPD1), DHA, or PBS pH 7.4 (control). RNA and protein were quickly isolated using Trizol Reagent (Invitrogen, Carlsbad, Calif.) and stored at −81° C. within minutes of isolation.
(§2) COX-2 RNA abundance in hippocampus and HN cells. Abundance of human-specific COX-1 and COX-2 RNA message was assayed using RT-PCR as described in Bazan, N. G., and Lukiw, W. J. (2002) J. Biol. Chem. 277, 30359-30367.

Bax gene expression = assay: HGU133 GeneChip DNA array in HN cells: Bax; type: cell-based, human; settings: Aβ42 25 μM, DHA 50 nM or NPD1 50 nM, 18 h, nsc = no significant change
Excerpt: Total RNA quality and abundance were profiled using RNA Nano LabChips (Caliper Technologies, Mountainview, Calif.; Agilent Technologies, Palo Alto, Calif.).
Biotinylated antisense cRNAs were synthesized from cDNA using the Superscript Choice System (Invitrogen) and Enzo Biorray High Yield RNA Transcript Labeling kits according to the manufacturer's protocols (Affymetrix) and as described in Colangelo, V., Schurr, J., Ball, M. J., Pelaez, R. P., Bazan, N. G., Lukiw, W. J. (2002) J. Neurosci. […] Probes were hybridized against HU133Av2 GeneChip DNA arrays that interrogate approximately 33,000 full-length mouse genes and expressed sequence tag (EST) clusters.
DNA arrays were scanned at 570 nm, and significant features were extracted using Data Mining Tool 3.0 (Affymetrix). Data analyses and graphic presentations were performed using Microarray Suite 5.0 (Affymetrix), GeneSpring 6.0 (Silicon Genetics, Redwood City, Calif.) and Adobe Photoshop 6.0 (Adobe Systems, San Jose, Calif.). Volcano plots were plotted representing total gene expression patterns as a function of fold-change as compared to expression patterns of age-matched controls as plotted against p, as calculated by an analysis of variance (ANOVA). […] Statistical significance was analyzed using a two-way factorial analysis of variance (p, ANOVA; Statistical Analysis System; SAS Institute, Cary, N.C. ).

COX-2 gene expression = assay: HGU133 GeneChip DNA array in HN cells: COX-2; type: cell-based, human; settings: Aβ42 25 μM, DHA 50 nM or NPD1 50 nM, 18 h, nsc = no significant change
caspase-3 = assay: Caspase-3 cleavage in ARPE-19 cells stably transfected with lentivirus DEVD construct; settings: 50 nM
Excerpt: The values shown are the average of triplicate samples in three independent experiments.

COX-2 mRNA = COX-2 mRNA in IL-1β-exposed human neural progenitor cells; type: cell-based; settings: p<0.05
Method: as §1, §2

COX-2 expression = assay: COX-2 mRNA abundance in ipsilateral hippocampus after MCA-O; type: in vivo, mouse; settings: 1 h MCA-O, 2 h reperfusion, infused into third ventricle (NPD1 0.16 μg/ml)
Method: as §2
To determine COX-1 and COX-2 expression, mRNA abundance in the ipsilateral hippocampus was measured. […] A 3-fold increase of COX-2 was seen due to MCA-O reperfusion (FIG. 7C). The infusion of the precursor DHA as well as its product 10,17S-docosatriene (NPD1) inhibited COX-2 expression by 14% and 52%, respectively.

STAT-1-DNA binding = assay: EMSA of STAT-1 in hippocampus after MCA-O; type: in vivo, mouse; settings: 1 h MCA-O, 2 h reperfusion, NPD1 0.16 μg/ml infused 3 h
Method: Electrophoretic mobility-shift assay (EMSA) of human AP1, HIF-1α, NF-κBp50/p65, and STAT-1α. Nuclear protein extracts (NPXTs) were prepared from one to three 3.5 cm-diameter wells of HN cells and quantitated. NPXTs (5 μg) derived from HN cells were incubated with[γ-^32P]-ATP (˜3000 Ci/mmol)-end-labeled AP1, HIF-1α, NF-κκBp50/p65, or STAT-1α consensus and mutant oligonucleotides in 5-μl volumes, reacted for 30 min on ice, analyzed on 5% or 10% acrylamide/90 mM Tris-borate pH 8.4, 1 mM EDTA (TBE) gels, dried onto 2-mm Whatman filter paper at 80° C. for 2 h, and phosphorimaged using a Typhoon Variable Mode Imager (Amersham Pharmacia Biotech, Piscataway, N.J. ).
FIGS. 7A, 7B, and 7C show mouse hippocampus after 1 h MCA-O was followed by 2 h reperfusion, where either vehicle, DHA, or 10,17S-docosatriene (NPD1) (0.16 μg/ml) was infused into the third ventricle for 3 h at 0.25 μl/h. […] NF-κB was increased over two fold in the ipsilateral hippocampus after MCA-O, and the infusion of either DHA or 10,17S-docosatriene (NPD1) inhibited ischemia-reperfusion-induced NF-κB activation by 28% and 48%, respectively (FIG. 7A).

CEX-1 gene expression = assay: HGU133 GeneChip DNA array in HN cells: CEX-1; type: cell-based, human; settings: Aβ42 25 μM, DHA 50 nM or NPD1 50 nM, 18 h, nsc = no significant change

## CC/C=C\C[C@H](O)\C=C/C=C/C=C/[C@H](O)C/C=C\C/C=C\CCC(=O)O [NPD1, 10,17S-docosatriene]
COX-1 mRNA
  effect on basal level of COX-1 mRNA: seemed to decrease
Bax gene expression
  Bax gene expression, fold change over untreated controls: nsc
COX-2 gene expression
  COX-2 gene expression, fold change over untreated controls: nsc
caspase-3; 400 μM H2O2 with TNFα
  inhibition of caspase-3 activation: 60%
caspase-3; 800 μM H2O2 with TNFα
  inhibition of caspase-3 activation: 50%
COX-2 mRNA
  effect on IL-1β-induced expression of COX-2 mRNA: inhibited
COX-2 expression
  inhibition of COX-2 expression (mRNA): 52%
STAT-1-DNA binding
  effect on STAT-1-DNA binding: small effect
CEX-1 gene expression
  CEX-1 gene expression, fold change over untreated controls: nsc
